Laboratory results taken from patent US20260176320A1, “MODULATORS OF G-PROTEIN COUPLED RECEPTORS” (priority 2018, published 2026).
Read-outs that look alike come from different tables or passages of the source.

Tests used:
[1] = target: GLP-1R (Homo sapiens, UniProt P43220); experiment: HitHunter cAMP assay (GLP-1R); assay type: cell-based; conditions: cAMP; for Emax: read-out: (Emax) GLP-1R
Procedure: (§1) Suspension cells were harvested and resuspended in 1×HBSS (+10 mM HEPES, 625 μM IBMX, 0.2% BSA) according to the following procedure: 5 μL of 2× cell suspension+1× antibody were added to each well, where the optimal cell density was 10,000 cells per well in a low volume 384-well plate. Agonist serial dilutions in a separate 384 well dilution plate in a 22-point series of 2× dilutions of agonist in DMSO were performed as follows. 80 μL of the highest concentration of Agonist/DMSO was added to well No. 1. 40 μL was removed from well No. 1 and added it to well No. 2, followed by gentle mixing. […] This process was repeated until well No. 22. Additional serial dilutions for additional agonists were set up in a similar manner. 50 nL of each 2× agonist serial dilution was added in duplicate to the designated agonist rows of the assay plate using the Labcyte ECHO. Assay plate was incubated for 30 minutes at room temperature. Following agonist incubation, 5 μL of cAMP Antibody Reagent was added to all wells. […] Plates were spun down briefly. Assay plate was incubated for 1 hour at room temperature in the dark for the immunocompetition reaction to occur. […] Plates were spun down briefly. Assay plate was incubated O/N at room temperature in the dark. Samples were read on Tecan i-control plate reader using luminescence mode with 300 ms integration time. Data analysis was performed using GraphPad Prism.

[2] = target: T1, GIP-R (Homo sapiens, UniProt P48546); experiment: HitHunter cAMP assay (GIP-R); assay type: cell-based; conditions: Table 3A; cAMP; read-out: (Emax) GIP-R
T1 sequence (P48546 22-466): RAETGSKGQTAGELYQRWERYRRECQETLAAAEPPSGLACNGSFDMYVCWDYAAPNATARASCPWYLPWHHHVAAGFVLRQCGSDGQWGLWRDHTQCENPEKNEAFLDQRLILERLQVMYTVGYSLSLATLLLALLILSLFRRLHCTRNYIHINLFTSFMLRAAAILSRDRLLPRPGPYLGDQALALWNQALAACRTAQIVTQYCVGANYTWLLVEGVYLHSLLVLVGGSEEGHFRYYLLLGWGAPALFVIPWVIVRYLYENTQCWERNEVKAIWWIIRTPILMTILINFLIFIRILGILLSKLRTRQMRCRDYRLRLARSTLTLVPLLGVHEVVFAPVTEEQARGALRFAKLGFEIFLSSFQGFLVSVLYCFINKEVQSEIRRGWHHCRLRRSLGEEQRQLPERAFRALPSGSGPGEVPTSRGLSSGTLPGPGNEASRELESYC
Procedure: as §1

[3] = Table 3A, read-out: EC50 GLP-1R/nM

GLP-1R, sequence (P43220 24-463): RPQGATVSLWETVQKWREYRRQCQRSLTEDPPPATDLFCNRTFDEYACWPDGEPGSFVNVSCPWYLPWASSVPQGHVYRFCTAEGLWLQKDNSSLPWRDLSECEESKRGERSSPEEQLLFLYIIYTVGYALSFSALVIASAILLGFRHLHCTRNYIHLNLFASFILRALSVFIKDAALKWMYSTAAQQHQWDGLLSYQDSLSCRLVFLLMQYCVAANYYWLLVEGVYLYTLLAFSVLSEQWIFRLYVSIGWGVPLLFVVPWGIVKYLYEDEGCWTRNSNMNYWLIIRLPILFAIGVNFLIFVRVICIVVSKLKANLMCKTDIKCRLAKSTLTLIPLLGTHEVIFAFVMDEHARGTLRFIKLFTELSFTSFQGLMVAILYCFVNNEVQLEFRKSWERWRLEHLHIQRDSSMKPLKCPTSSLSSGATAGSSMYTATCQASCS

SMILES	Emax ([1]; Table 3A) [%]	Emax [2] [%]	EC50 [1, 3] [nM]	further results
CCCCCCCCCCCCCCCC(=O)N[C@@H](CCC(=O)NCCCC[C@H](NC(=O)[C@H](CO)NC(=O)[C@@H]1CCCN1C(=O)[C@@H]1CCCN1C(=O)[C@@H]1CCCN1C(=O)[C@H](C)NC(=O)CNC(=O)[C@H](CO)NC(=O)[C@H](CO)NC(=O)[C@@H]1CCCN1C(=O)CNC(=O)CNC(=O)[C@H](C)NC(=O)[C@H](CC(C)C)NC(=O)[C@H](CC(C)C)NC(=O)[C@H](Cc1c[nH]c2ccccc12)NC(=O)[C@H](CC(N)=O)NC(=O)[C@@H](NC(=O)[C@H](Cc1ccccc1)NC(=O)[C@H](CCC(=O)O)NC(=O)C(C)(C)NC(=O)[C@H](C)NC(=O)[C@H](C)NC(=O)[C@H](CCC(N)=O)NC(=O)[C@H](CCCCN)NC(=O)[C@H](CC(=O)O)NC(=O)[C@H](CC(C)C)NC(=O)[C@H](Cc1ccc(O)cc1)NC(=O)[C@@H](NC(=O)[C@H](CO)NC(=O)[C@H](Cc1ccc(O)cc1)NC(=O)[C@H](CC(=O)O)NC(=O)[C@H](CO)NC(=O)[C@@H](NC(=O)[C@H](Cc1ccccc1)NC(=O)[C@@H](NC(=O)CNC(=O)[C@H](CCC(=O)O)NC(=O)CSCC(=O)NCCN1C(=O)CC(C)(C(C)C)C1=O)[C@@H](C)O)[C@@H](C)O)[C@@H](C)CC)C(C)C)C(N)=O)C(=O)O (mixture of isomers) [Compound 101]	92	–	–	EC50 ([1]; EC50 GLP-1R/nM, Table 3): 10 to 100 nM; EC50 ([1]; EC50 GLP-1R/nM, Table 3A): 10 to 100 nM; Emax ([1]; Table 3): 92%
CCCCCCCCCCCCCCCC(=O)N[C@@H](CCC(=O)NCCCC[C@H](NC(=O)[C@H](CO)NC(=O)[C@@H]1CCCN1C(=O)[C@@H]1CCCN1C(=O)[C@@H]1CCCN1C(=O)[C@H](C)NC(=O)CNC(=O)[C@H](CO)NC(=O)[C@H](CO)NC(=O)[C@@H]1CCCN1C(=O)CNC(=O)CNC(=O)[C@H](C)NC(=O)[C@H](CC(C)C)NC(=O)[C@H](CC(C)C)NC(=O)[C@H](Cc1c[nH]c2ccccc12)NC(=O)[C@H](CC(N)=O)NC(=O)[C@@H](NC(=O)[C@H](Cc1ccccc1)NC(=O)[C@H](CCC(=O)O)NC(=O)C(C)(C)NC(=O)[C@H](C)NC(=O)[C@H](C)NC(=O)[C@H](CCC(N)=O)NC(=O)[C@H](CCCCN)NC(=O)[C@H](CC(=O)O)NC(=O)[C@H](CC(C)C)NC(=O)[C@H](Cc1ccc(O)cc1)NC(=O)[C@@H](NC(=O)[C@H](CO)NC(=O)[C@H](Cc1ccc(O)cc1)NC(=O)[C@H](CC(=O)O)NC(=O)[C@H](CO)NC(=O)[C@@H](NC(=O)[C@H](Cc1ccccc1)NC(=O)[C@@H](NC(=O)CNC(=O)[C@H](CCC(=O)O)NC(=O)CSCC(=O)NCCN1CC[C@@H](O)CC1=O)[C@@H](C)O)[C@@H](C)O)[C@@H](C)CC)C(C)C)C(N)=O)C(=O)O (single isomer, unassigned) [Compound 203]	–	44	–	–
CCCCCCCCCCCCCCCC(=O)N[C@@H](CCC(=O)NCCCC[C@H](NC(=O)[C@H](CO)NC(=O)[C@@H]1CCCN1C(=O)[C@@H]1CCCN1C(=O)[C@@H]1CCCN1C(=O)[C@H](C)NC(=O)CNC(=O)[C@H](CO)NC(=O)[C@H](CO)NC(=O)[C@@H]1CCCN1C(=O)CNC(=O)CNC(=O)[C@H](C)NC(=O)[C@H](CC(C)C)NC(=O)[C@H](CC(C)C)NC(=O)[C@H](Cc1c[nH]c2ccccc12)NC(=O)[C@H](CC(N)=O)NC(=O)[C@@H](NC(=O)[C@H](Cc1ccccc1)NC(=O)[C@H](CCC(=O)O)NC(=O)C(C)(C)NC(=O)[C@H](C)NC(=O)[C@H](C)NC(=O)[C@H](CCC(N)=O)NC(=O)[C@H](CCCCN)NC(=O)[C@H](CC(=O)O)NC(=O)[C@H](CC(C)C)NC(=O)[C@H](Cc1ccc(O)cc1)NC(=O)[C@@H](NC(=O)[C@H](CO)NC(=O)[C@H](Cc1ccc(O)cc1)NC(=O)[C@H](CC(=O)O)NC(=O)[C@H](CO)NC(=O)[C@@H](NC(=O)[C@H](Cc1ccccc1)NC(=O)[C@@H](NC(=O)CNC(=O)[C@H](CCC(=O)O)NC(=O)CSCC(=O)NCCN1CCC[C@H](C)C1=O)[C@@H](C)O)[C@@H](C)O)[C@@H](C)CC)C(C)C)C(N)=O)C(=O)O (single isomer, unassigned) [Compound 207]	–	68	–	–
CCCCCCCCCCCCCCCC(=O)N[C@@H](CCC(=O)NCCCC[C@H](NC(=O)[C@H](CO)NC(=O)[C@@H]1CCCN1C(=O)[C@@H]1CCCN1C(=O)[C@@H]1CCCN1C(=O)[C@H](C)NC(=O)CNC(=O)[C@H](CO)NC(=O)[C@H](CO)NC(=O)[C@@H]1CCCN1C(=O)CNC(=O)CNC(=O)[C@H](C)NC(=O)[C@H](CC(C)C)NC(=O)[C@H](CC(C)C)NC(=O)[C@H](Cc1c[nH]c2ccccc12)NC(=O)[C@H](CC(N)=O)NC(=O)[C@@H](NC(=O)[C@H](Cc1ccccc1)NC(=O)[C@H](CCC(=O)O)NC(=O)C(C)(C)NC(=O)[C@H](C)NC(=O)[C@H](C)NC(=O)[C@H](CCC(N)=O)NC(=O)[C@H](CCCCN)NC(=O)[C@H](CC(=O)O)NC(=O)[C@H](CC(C)C)NC(=O)[C@H](Cc1ccc(O)cc1)NC(=O)[C@@H](NC(=O)[C@H](CO)NC(=O)[C@H](Cc1ccc(O)cc1)NC(=O)[C@H](CC(=O)O)NC(=O)[C@H](CO)NC(=O)[C@@H](NC(=O)[C@H](Cc1ccccc1)NC(=O)[C@@H](NC(=O)CNC(=O)[C@H](CCC(=O)O)NC(=O)CSCC(=O)NCCN1CCC[C@@H](C)C1=O)[C@@H](C)O)[C@@H](C)O)[C@@H](C)CC)C(C)C)C(N)=O)C(=O)O (single isomer, unassigned) [Compound 208]	–	59	–	–
CCCCCCCCCCCCCCCC(=O)N[C@@H](CCC(=O)NCCCC[C@H](NC(=O)[C@H](CO)NC(=O)[C@@H]1CCCN1C(=O)[C@@H]1CCCN1C(=O)[C@@H]1CCCN1C(=O)[C@H](C)NC(=O)CNC(=O)[C@H](CO)NC(=O)[C@H](CO)NC(=O)[C@@H]1CCCN1C(=O)CNC(=O)CNC(=O)[C@H](C)NC(=O)[C@H](CC(C)C)NC(=O)[C@H](CC(C)C)NC(=O)[C@H](Cc1c[nH]c2ccccc12)NC(=O)[C@H](CC(N)=O)NC(=O)[C@@H](NC(=O)[C@H](Cc1ccccc1)NC(=O)[C@H](CCC(=O)O)NC(=O)C(C)(C)NC(=O)[C@H](C)NC(=O)[C@H](C)NC(=O)[C@H](CCC(N)=O)NC(=O)[C@H](CCCCN)NC(=O)[C@H](CC(=O)O)NC(=O)[C@H](CC(C)C)NC(=O)[C@H](Cc1ccc(O)cc1)NC(=O)[C@@H](NC(=O)[C@H](CO)NC(=O)[C@H](Cc1ccc(O)cc1)NC(=O)[C@H](CC(=O)O)NC(=O)[C@H](CO)NC(=O)[C@@H](NC(=O)[C@H](Cc1ccccc1)NC(=O)[C@@H](NC(=O)CNC(=O)[C@H](CCC(=O)O)NC(=O)C(=O)NCCN1CCCCC1=O)[C@@H](C)O)[C@@H](C)O)[C@@H](C)CC)C(C)C)C(N)=O)C(=O)O [Compound 215]	103	–	1 to 10	–
CCCCCCCCCCCCCCCC(=O)N[C@@H](CCC(=O)NCCCC[C@H](NC(=O)[C@H](CO)NC(=O)[C@@H]1CCCN1C(=O)[C@@H]1CCCN1C(=O)[C@@H]1CCCN1C(=O)[C@H](C)NC(=O)CNC(=O)[C@H](CO)NC(=O)[C@H](CO)NC(=O)[C@@H]1CCCN1C(=O)CNC(=O)CNC(=O)[C@H](C)NC(=O)[C@H](CC(C)C)NC(=O)[C@H](CC(C)C)NC(=O)[C@H](Cc1c[nH]c2ccccc12)NC(=O)[C@H](CC(N)=O)NC(=O)[C@@H](NC(=O)[C@H](Cc1ccccc1)NC(=O)[C@H](CCC(=O)O)NC(=O)C(C)(C)NC(=O)[C@H](C)NC(=O)[C@H](C)NC(=O)[C@H](CCC(N)=O)NC(=O)[C@H](CCCCN)NC(=O)[C@H](CC(=O)O)NC(=O)[C@H](CC(C)C)NC(=O)[C@H](Cc1ccc(O)cc1)NC(=O)[C@@H](NC(=O)[C@H](CO)NC(=O)[C@H](Cc1ccc(O)cc1)NC(=O)[C@H](CC(=O)O)NC(=O)[C@H](CO)NC(=O)[C@@H](NC(=O)[C@H](Cc1ccccc1)NC(=O)[C@@H](NC(=O)CNC(=O)[C@@H](CCc1nn[nH]n1)NC(=O)CSCC(=O)NCCN1CCCCC1=O)[C@@H](C)O)[C@@H](C)O)[C@@H](C)CC)C(C)C)C(N)=O)C(=O)O [Compound 222]	99	–	1 to 10	–
